Measurements from patent US20120115742A1, “METHODS FOR IDENTIFICATION” (Cambridge Enterprise Limited, priority 2009, published 2012).

How the values were obtained:
fetal rat pituicytes = assay: Rat pituicyte GH suppression assay; type: cell-based; conditions: Table 3
Excerpt: Two different assays for “classical” sstr2 functions were adopted: (1) cultured foetal rat pituitary cells secreted growth hormone which is inhibited by sstr2 agonists in a dose-dependent fashion and (2) selected glucose-sensitive sub-clones of the human Panc-1 cell line secrete insulin which is inhibited by sstr2 agonists in a dose-dependent fashion.
Methods: Cultures of fetal rat pituicytes were established exactly as previously described (Murray et al. (2004) J. Clin. Endocrinol. Metab. 89:3027-32) by enzymatic dispersion. After 48 hrs in low glucose DMEM plus 10% FCS, cells in 48 well plates (5×10^4 cells per well) were washed for 4 hrs in serum-free DMEM and then incubated with test agents at various concentrations for a further 24 hrs in serum-free DMEM. At the end of this period, the conditioned medium was harvested, any cell debris removed by centrifugation and assayed for […] using a commercially available ELISA (Linco; cat# EZRMGH-45K) in accordance with the manufacturer's instructions.
Results were reported as the mean SD, expressed as the fold change from cells in the presence of vehicle only.

sstr2 = molecular target: T1, sstr2 (Homo sapiens, UniProt P30874); assay: [3H]-BN83250 equilibrium binding to THP-1 cells (Scatchard/competition); conditions: THP-1 cells, 2 hours at 4° C.; read-out: affinity (Scatchard analysis)
T1 construct: with 1×10^6 THP-1 cells in Gey's Balanced Salt Solution, 10 nM [^3H]-BN83250; endogenous in cells; host or cells: THP-1 cells (intact cells, 4 °C)
T1 sequence (P30874 whole entry): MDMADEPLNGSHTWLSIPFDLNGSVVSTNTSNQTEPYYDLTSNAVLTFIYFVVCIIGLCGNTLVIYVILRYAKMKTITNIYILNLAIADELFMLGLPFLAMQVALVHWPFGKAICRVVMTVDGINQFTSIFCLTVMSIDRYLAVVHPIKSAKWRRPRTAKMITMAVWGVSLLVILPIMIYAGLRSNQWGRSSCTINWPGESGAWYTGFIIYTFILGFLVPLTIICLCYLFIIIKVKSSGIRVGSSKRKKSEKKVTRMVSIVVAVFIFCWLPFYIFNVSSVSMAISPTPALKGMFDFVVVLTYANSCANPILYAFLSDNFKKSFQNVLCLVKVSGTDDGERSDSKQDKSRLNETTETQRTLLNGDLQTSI
Method: Methods: [^3H]-BN83250 was synthesesized from (S,E)-3-(2′,2′-dimethyldodec-4′-enoylamino)-caprolactam by catalytic hydrogenation using tritium gas over a palladium catalyst (CRB Ltd, Cleveland, UK), yielding the tritiated product at a concentration of 270 μM in ethanol with a specific activity of 220Ci/mmol. The (S,E)-3-(2′,2′-dimethyldodec-4′-enoylamino)-caprolactam was prepared as follows: (S,S)-3-amino-caprolactam hydro-pyrrolidine-5-carboxylate (10 mmol) and Na2CO3 (30 mmol) in water (30 ml) were added to a solution of 2,2-dimethyl-dodec-4-enoyl chloride (10 mmol) in dichloromethane (30 ml) at ambient temperature and the reaction was stirred for 12 hours. The organic layer was then separated and the aqueous phase was extracted with additional dichloromethane (2×25 ml). The combined organic layers were dried over Na2CO3 and reduced in vacuo. The residue was purified by silica column chromatography (1:1 EtOAc:hexanes to EtOAc) to give (S,E)-3-(2′,2′-dimethyl-dodec-4′-enoyl)amino-caprolactam as a colourless oil (2.12 g, 63%). The radiolabelled compound was stored in the dark at 4° C. until required. Prior to use the specific activity was adjusted by addition of unlabelled BN83250.
For the analysis of binding, individual reactions were set up (in triplicate for each condition), with 1×10^6 THP-1 cells in Gey's Balanced Salt Solution, 10 nM [^3H]-BN83250 (at 50 Ci/mmol) and various concentrations of (S)-3(2′2′-dimethylpropionoylamino)-tetrahydropyridin-2-one (10 pM to 10 μM). Excess (100 μM) unlabelled BN83250 was used to determine the level of non-specific binding. After 2 hours at 4° C. (conditions previously shown to achieve equilibrium binding, and which prevent uptake of the radioligand that would result in an over-estimate of binding) excess label was washed away by centrifugation (3 washes with 5 ml of Gey's Balanced Salt Solution) and the bound radioactivity was determined by scintillation counting of the solubilised cell pellet.
Hits from this assay were confirmed using conventional Scatchard analysis, exactly as described in Example 4 above.

THP-1 cells = assay: MCP-1 induced THP-1 cell migration (Transwell/ChemoTx)
Method: Leukocyte migration was measured using the 96-well format micro Transwell® assay system from Neuroprobe (Gaithersburg, Md., USA). In principle, this assay consists of two chambers separated by a porous membrane. The chemoattractant is placed in the lower compartment and the cells are placed in the upper compartment.
First, the cell suspension to be placed in the upper compartment was prepared. The THP-1 cells were pelleted by centrifugation (770×g; 4 mins) and washed with Geys Balanced Salt Solution with 1 mg/ml BSA (GBSS+BSA). This wash was then repeated, and the cells re-pelleted before being resuspended in a small volume of GBSS+BSA for counting, for example using a standard haemocytometer.
This ensured that there were 100,000 THP-1 cells in each 25 μl of the solution to be placed in the upper chamber of the plate.
To the third pot, GBSS+BSA plus vehicle as appropriate was added so that the volumes in three pots are equal, acting as a control.
Next, the chemoattractant solution to be placed in the lower compartment was prepared. […] This solution was divided into three pots, as for the cell suspension. To one pot, the BSCI was added to the same final concentration as was added to the cell suspension, in the second pot the BSCI and the sstr2 antagonist were both added at the same concentration as previously added to the cell suspension, while to the remaining pot GBSS+BSA plus vehicle as appropriate was added so that the volumes in the three pots were equal.
Once the chemoattractant solutions for the lower wells and cell solutions for the upper chambers were prepared, the migration chamber was assembled. 29 μl of the appropriate chemoattractant solution was placed into the lower well of the chamber. Assays were performed with at least triplicate determinations of each condition. Once all the lower chambers were filled, the porous membrane was applied to the chamber in accordance with the manufacturer's instructions. Finally, 25 μl of the appropriate cell solution was applied to each upper chamber. A plastic lid was placed over the entire apparatus to prevent evaporation.
The assembled chamber was incubated at 37° C., 5% CO2, for 2 hours.
At the end of the incubation, the liquid cell suspension was gently removed from the upper chamber, 20 μl of ice-cold 20 mM EDTA in PBS was added to the upper chamber, and the apparatus was incubated at 4° C. for 15 mins. This procedure caused any cells adhering to the underside of the membrane to fall into the lower chamber.
After this incubation the filter was carefully flushed with GBSS+BSA to wash off the EDTA, and then the filter was removed.
The number of cells migrated into the lower chamber under each condition can then be determined by a number of methods, including direct counting, labelling with fluorescent or radioactive markers or through the use of a vital dye. Typically, we utilised the vital dye MTT. 3 μl of stock MTT solution were added to each well, and then the plate was incubated at 37° C. for 1-2 hours during which time dehydrogenase enzymes within the cells converted the soluble MTT to an insoluble blue formazan product that could be quantified spectrophotometrically.
In parallel, an 8-point standard curve was set up. Starting with the number of cells added to each upper chamber (100,000) and going down in 2-fold serial dilutions in GBSS+BSA, the cells were added to a plate in 25 with 3 μl of MTT stock solution added. The standard curve plate was incubated along side the migration plate. At the end of this incubation, the liquid was carefully removed from the lower chambers, taking care not to disturb the precipitated formazan product.
The MCP-1 stimulated migration was determined by subtracting the average number of cells that reached the lower compartment in wells where no MCP-1 was added from the average number of cells that reached the lower compartment where MCP-1 was present at 25 ng/ml.

(S)-3-(2′,2′-dimethyldodecanoyl)amino-caprolactam [BN83250]
EC50 (fetal rat pituicytes; read-out: Rat pituicyte GH suppression assay ED50): 320 nM
Rat pituicyte GH suppression assay Max effect (fetal rat pituicytes; suppression compared to vehicle): 63%
Kd (sstr2): ~80 nM
“Classical”:“BSCI” potency ratio, Human (THP-1 cells; THP-1 migration ED50 versus Panc-2H4 insulin ED50): <0.00009
Human chemokine-induced THP-1 migration assay Max effect (THP-1 cells; Table 3): 100%
Chemokine-induced THP-1 cell migration assay Max Effect (THP-1 cells; Table 5): 100%
RATIO (THP-1 cells; Table 5, migration ED50 versus insulin ED50): <0.00009
